Test results taken from ChEMBL document CHEMBL1201862, “PubChem BioAssay data set” (2004).
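Results reflect a 48-hour exposure of cells in 96-well plates to compound at five concentrations. GI50 = concentration required for 50% inhibition of growth.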 Activity calls are given as the source filed them. No stated cut-off is given here; in the data, active = GI50 up to about 1.1 µM and inactive = higher.

How the values were obtained:
Assay in all cases: NCI tumour cell line growth inhibition, 48 h
[1] = tested on: CCRF-CEM
[2] = tested on: NCI-H23
[3] = tested on: SNB-75
[4] = tested on: HCC 2998
[5] = tested on: SF-295
[6] = tested on: SK-MEL-5
[7] = tested on: RPMI-8226
[8] = tested on: SN12C
[9] = tested on: OVCAR-5
[10] = tested on: 786-0
[11] = tested on: SR
[12] = tested on: MCF7
[13] = tested on: OVCAR-3
[14] = tested on: OVCAR-8
[15] = tested on: HOP-62
[16] = tested on: Hs-578T
[17] = tested on: CAKI-1
[18] = tested on: OVCAR-4
[19] = tested on: MOLT-4
[20] = tested on: BT-549
[21] = tested on: ACHN
[22] = tested on: RXF 393
[23] = tested on: SNB-19
[24] = tested on: SK-MEL-28
[25] = tested on: SF-539
[26] = tested on: EKVX
[27] = tested on: MDA-MB-435
[28] = tested on: UO-31
[29] = tested on: Malme-3M
[30] = tested on: DU-145
[31] = tested on: T47D
[32] = tested on: KM12
[33] = tested on: M14
[34] = tested on: SK-MEL-2
[35] = tested on: U-251
[36] = tested on: HCT-116
[37] = tested on: NCI-H460
[38] = tested on: MDA-MB-231
[39] = tested on: TK-10
[40] = tested on: COLO 205
[41] = tested on: UACC-257
[42] = tested on: SK-OV-3
[43] = tested on: A549
[44] = tested on: UACC-62
[45] = tested on: PC-3
[46] = tested on: MDA-N
[47] = tested on: K562
[48] = tested on: NCI-H522
[49] = tested on: SF-268
[50] = tested on: LOX IMVI
[51] = tested on: SW-620
[52] = tested on: A498
[53] = tested on: HOP-92
[54] = tested on: NCI-H226
[55] = tested on: HT-29
[56] = tested on: IGROV-1
[57] = tested on: HCT-15
[58] = tested on: HL-60
[59] = tested on: NCI/ADR-RES

## CCOP(=O)(OCC)[C@]12C[C@@H](C)C=C[C@H]1COC2=O
[1]
  GI50: > 100 µM (inactive)
[2]
  GI50: > 100 µM (inactive)
[3]
  GI50: > 100 µM (inactive)
[4]
  GI50: > 100 µM (inactive)
[5]
  GI50: > 100 µM (inactive)
[6]
  GI50: > 100 µM (inactive)
[7]
  GI50: > 100 µM (inactive)
[8]
  GI50: > 100 µM (inactive)
[9]
  GI50: > 100 µM (inactive)
[10]
  GI50: > 100 µM (inactive)
[11]
  GI50: > 100 µM (inactive)
[12]
  GI50: > 100 µM (inactive)
[13]
  GI50: > 100 µM (inactive)
[14]
  GI50: > 100 µM (inactive)
[15]
  GI50: > 100 µM (inactive)
[16]
  GI50: > 100 µM (inactive)
[17]
  GI50: > 100 µM (inactive)
[18]
  GI50: > 100 µM (inactive)
[19]
  GI50: > 100 µM (inactive)
[20]
  GI50: > 100 µM (inactive)
[21]
  GI50: > 100 µM (inactive)
[22]
  GI50: > 100 µM (inactive)
[23]
  GI50: > 100 µM (inactive)
[24]
  GI50: > 100 µM (inactive)
[25]
  GI50: > 100 µM (inactive)
[26]
  GI50: > 100 µM (inactive)
[27]
  GI50: > 100 µM (inactive)
[28]
  GI50: > 100 µM (inactive)
[29]
  GI50: > 100 µM (inactive)
[30]
  GI50: > 100 µM (inactive)
[31]
  GI50: > 100 µM (inactive)
[32]
  GI50: > 100 µM (inactive)
[33]
  GI50: > 100 µM (inactive)
[34]
  GI50: > 100 µM (inactive)
[35]
  GI50: > 100 µM (inactive)
[36]
  GI50: > 100 µM (inactive)
[37]
  GI50: > 100 µM (inactive)
[38]
  GI50: > 100 µM (inactive)
[39]
  GI50: > 100 µM (inactive)
[40]
  GI50: > 100 µM (inactive)
[41]
  GI50: > 100 µM (inactive)
[42]
  GI50: > 100 µM (inactive)
[43]
  GI50: > 100 µM (inactive)
[44]
  GI50: > 100 µM (inactive)
[45]
  GI50: > 100 µM (inactive)
[46]
  GI50: > 100 µM (inactive)
[47]
  GI50: > 100 µM (inactive)
[48]
  GI50: > 100 µM (inactive)
[49]
  GI50: > 100 µM (inactive)
[50]
  GI50: > 100 µM (inactive)
[51]
  GI50: > 100 µM (inactive)
[52]
  GI50: > 100 µM (inactive)

## Cc1cc(C)c2c(c1)C(=O)/C(=C/c1ccccc1C(=O)O)C2
[1]
  GI50: 44.2 µM (inactive)
[3]
  GI50: 40 µM (inactive)
[53]
  GI50: > 100 µM (inactive)
[4]
  GI50: 51.3 µM (inactive)
[5]
  GI50: 52.2 µM (inactive)
[6]
  GI50: 59.8 µM (inactive)
[7]
  GI50: 55.1 µM (inactive)
[8]
  GI50: 53.8 µM (inactive)
[10]
  GI50: > 100 µM (inactive)
[11]
  GI50: 62.4 µM (inactive)
[12]
  GI50: 88.7 µM (inactive)
[13]
  GI50: 22.5 µM (inactive)
[14]
  GI50: 68.4 µM (inactive)
[15]
  GI50: 67.5 µM (inactive)
[16]
  GI50: > 100 µM (inactive)
[17]
  GI50: > 100 µM (inactive)
[18]
  GI50: 45.1 µM (inactive)
[54]
  GI50: 30.9 µM (inactive)
[19]
  GI50: 34.4 µM (inactive)
[20]
  GI50: 78 µM (inactive)
[21]
  GI50: > 100 µM (inactive)
[55]
  GI50: 59 µM (inactive)
[22]
  GI50: 38.7 µM (inactive)
[23]
  GI50: 50.1 µM (inactive)
[24]
  GI50: > 100 µM (inactive)
[25]
  GI50: 25.9 µM (inactive)
[26]
  GI50: 29.1 µM (inactive)
[28]
  GI50: > 100 µM (inactive)
[29]
  GI50: > 100 µM (inactive)
[56]
  GI50: > 100 µM (inactive)
[30]
  GI50: > 100 µM (inactive)
[57]
  GI50: 54.3 µM
[31]
  GI50: 39 µM (inactive)
[32]
  GI50: 94.6 µM (inactive)
[33]
  GI50: 90.4 µM (inactive)
[34]
  GI50: > 100 µM (inactive)
[35]
  GI50: 35.7 µM (inactive)
[36]
  GI50: 63 µM (inactive)
[37]
  GI50: 58.5 µM (inactive)
[38]
  GI50: 50.2 µM (inactive)
[39]
  GI50: > 100 µM (inactive)
[41]
  GI50: > 100 µM (inactive)
[43]
  GI50: 65.6 µM (inactive)
[44]
  GI50: 89.5 µM (inactive)
[45]
  GI50: 43.2 µM (inactive)
[46]
  GI50: 67.5 µM (inactive)
[47]
  GI50: 52.5 µM (inactive)
[48]
  GI50: 20.6 µM (inactive)
[49]
  GI50: 61.7 µM (inactive)
[50]
  GI50: 71.9 µM (inactive)
[51]
  GI50: 84.3 µM (inactive)
[52]
  GI50: 67 µM (inactive)
[58]
  GI50: 57.7 µM (inactive)

## Cc1ccc(S(N)(=O)=O)cc1 [P-TOLUENESULFONAMIDE]
[1]
  GI50: > 1000 µM (inactive)
[2]
  GI50: > 1000 µM (inactive)
[53]
  GI50: 558 µM (inactive)
[4]
  GI50: > 1000 µM (inactive)
[5]
  GI50: > 1000 µM (inactive)
[6]
  GI50: > 1000 µM (inactive)
[7]
  GI50: > 1000 µM (inactive)
[8]
  GI50: > 1000 µM (inactive)
[9]
  GI50: > 1000 µM (inactive)
[10]
  GI50: > 1000 µM (inactive)
[11]
  GI50: > 1000 µM (inactive)
[12]
  GI50: > 1000 µM (inactive)
[13]
  GI50: > 1000 µM (inactive)
[14]
  GI50: > 1000 µM (inactive)
[15]
  GI50: > 1000 µM (inactive)
[16]
  GI50: > 1000 µM (inactive)
[59]
  GI50: > 1000 µM (inactive)
[54]
  GI50: > 1000 µM (inactive)
[19]
  GI50: > 1000 µM (inactive)
[20]
  GI50: 977 µM (inactive)
[21]
  GI50: > 1000 µM (inactive)
[55]
  GI50: > 1000 µM (inactive)
[22]
  GI50: 502 µM (inactive)
[23]
  GI50: > 1000 µM (inactive)
[25]
  GI50: > 1000 µM (inactive)
[26]
  GI50: > 1000 µM (inactive)
[27]
  GI50: > 1000 µM (inactive)
[28]
  GI50: > 1000 µM (inactive)
[29]
  GI50: > 1000 µM (inactive)
[56]
  GI50: > 1000 µM (inactive)
[30]
  GI50: > 1000 µM (inactive)
[57]
  GI50: > 1000 µM
[31]
  GI50: > 1000 µM (inactive)
[32]
  GI50: > 1000 µM (inactive)
[33]
  GI50: > 1000 µM (inactive)
[34]
  GI50: > 1000 µM (inactive)
[35]
  GI50: > 1000 µM (inactive)
[36]
  GI50: > 1000 µM (inactive)
[37]
  GI50: > 1000 µM (inactive)
[39]
  GI50: > 1000 µM (inactive)
[40]
  GI50: > 1000 µM (inactive)
[41]
  GI50: > 1000 µM (inactive)
[42]
  GI50: > 1000 µM (inactive)
[43]
  GI50: > 1000 µM (inactive)
[44]
  GI50: > 1000 µM (inactive)
[45]
  GI50: > 1000 µM (inactive)
[46]
  GI50: > 1000 µM (inactive)
[47]
  GI50: > 1000 µM (inactive)
[48]
  GI50: > 1000 µM (inactive)
[49]
  GI50: > 1000 µM (inactive)
[50]
  GI50: > 1000 µM (inactive)
[51]
  GI50: > 1000 µM (inactive)
[52]
  GI50: > 1000 µM (inactive)
[58]
  GI50: > 1000 µM (inactive)
